Values quoted from earlier work as cited in patent publication US10927398B2, “Compositions for CYP450 phenotyping using saliva samples” (Concordia University, Inc., priority 2015, dated 2021).
Like-named read-outs stand apart in the source and are kept apart here.

Columns and labels:
[1] = cited from earlier work
plasma protein = conditions: cited from earlier work
[2] = cited from earlier work; remark: listed apart in the source
[3] = Table of Exemplary Drugs, CYP2D6
[4] = Table of Exemplary Drugs, CYP1A2
[5] = Table of Exemplary Drugs, CYP3A4
[6] = Table of Exemplary Drugs, CYP2C19
[7] = Table of Exemplary Drugs, CYP2C9

COc1ccc2c3c1O[C@H]1[C@@H](O)C=C[C@H]4[C@@H](C2)N(C)CC[C@@]341 [Codeine]
ORAL BIOAVAILABILITY ([1]; in vivo, po): 90% | PLASMA PROTEIN BINDING (plasma protein; [3]): 7-25%^ | HALF-LIFE ([2]; in vivo): 2.5 to 3 h

CN(C)CCC=C1c2ccccc2C=Cc2ccccc21 [Cyclobenzaprine]
ORAL BIOAVAILABILITY [1, 4]: 33-55% | PLASMA PROTEIN BINDING (plasma protein; [4]): 93% | HALF-LIFE [2, 4]: 8 to 37 h

CC(C)Nc1cccnc1N1CCN(C(=O)c2cc3cc(NS(C)(=O)=O)ccc3[nH]2)CC1 [Delavirdine (Rescriptor), Delavirdine]
ORAL BIOAVAILABILITY [1, 5]: 85% | PLASMA PROTEIN BINDING (plasma protein; [5]): 98% | HALF-LIFE [2, 5]: 5.8 h

CCN[C@@H](C)Cc1cccc(C(F)(F)F)c1 [Dexfenfluramine]
ORAL BIOAVAILABILITY ([1]; in vivo, po): 68% | PLASMA PROTEIN BINDING (plasma protein; [3]): 36% | HALF-LIFE ([2]; in vivo): 17 to 20 h

CN1C[C@H](C(=O)N[C@]2(C)O[C@@]3(O)[C@@H]4CCCN4C(=O)[C@H](Cc4ccccc4)N3C2=O)C[C@@H]2c3cccc4[nH]cc(c34)C[C@H]21 [Dihydroergotamine]
ORAL BIOAVAILABILITY ([1]; in vivo, po): <32% | PLASMA PROTEIN BINDING (plasma protein; plasma): 93% | HALF-LIFE ([2]; in vivo): 9 to 10 h

COc1ccc([C@@H]2Sc3ccccc3N(CCN(C)C)C(=O)[C@@H]2OC(C)=O)cc1 [Diltiazem (Cardizem), Diltiazem]
ORAL BIOAVAILABILITY [1, 5]: >40% | PLASMA PROTEIN BINDING (plasma protein; [5]): 70-80% ^ | HALF-LIFE [2, 5]: 3 to 6 h

CC(C)N(CCC(C(N)=O)(c1ccccc1)c1ccccn1)C(C)C (stereo not drawn) [Disopyramide (Norpace), Disopyramide]
ORAL BIOAVAILABILITY [1, 5]: 80% | PLASMA PROTEIN BINDING (plasma protein; [5]): 50-65% ^ | HALF-LIFE [2, 5]: 6.7 h

COc1cccc2c1C(=O)c1c(O)c3c(c(O)c1C2=O)C[C@@](O)(C(=O)CO)C[C@@H]3O[C@H]1C[C@H](N)[C@H](O)[C@H](C)O1 [Doxorubicin (Adriamycin), Doxorubicin]
ORAL BIOAVAILABILITY [1, 5]: 5% | PLASMA PROTEIN BINDING (plasma protein; [5]): 74-76% ^ | HALF-LIFE [2, 5]: 20 to 48 h

CNCC[C@H](Oc1cccc2ccccc12)c1cccs1 [Duloxetine]
ORAL BIOAVAILABILITY [1, 3]: 30-80% | PLASMA PROTEIN BINDING (plasma protein; [3]): >90% | HALF-LIFE ([2]; in vivo): 12 h

C[C@]12C=CC(=O)N[C@@H]1CC[C@@H]1[C@@H]2CC[C@]2(C)[C@@H](C(=O)Nc3cc(C(F)(F)F)ccc3C(F)(F)F)CC[C@@H]12 [Dutasteride (Avodart), Dutasteride]
ORAL BIOAVAILABILITY [1, 5]: 60% | PLASMA PROTEIN BINDING (plasma protein; [5]): 99% | HALF-LIFE [2, 5]: 5 weeks

CC(C)(C)c1ccc(C(=O)CCCN2CCC(OC(c3ccccc3)c3ccccc3)CC2)cc1 [Ebastine (Kestine), Ebastine]
ORAL BIOAVAILABILITY [1, 5]: “High” | PLASMA PROTEIN BINDING (plasma protein; [5]): 98% | HALF-LIFE [2, 5]: 24.8 h

O=C1Nc2ccc(Cl)cc2[C@@](C#CC2CC2)(C(F)(F)F)O1 [Efavir enz (Sustiva), Efavir enz]
ORAL BIOAVAILABILITY [1, 5]: 40-45% | PLASMA PROTEIN BINDING (plasma protein; [5]): 99.5-99.75% ^ | HALF-LIFE [2, 5]: 40 to 55 h

COc1ccc(C(=O)Nc2ccccc2CCC2CCCCN2C)cc1 (stereo not drawn) [Encainide]
ORAL BIOAVAILABILITY [1, 3]: 25-90% | PLASMA PROTEIN BINDING (plasma protein; [3]): 70.5-78% ^ | HALF-LIFE [2, 3]: 1.5 to 11.3 h

C#Cc1cccc(Nc2ncnc3cc(OCCOC)c(OCCOC)cc23)c1 [Erlotinib]
ORAL BIOAVAILABILITY [1, 4]: 60-100% | ORAL BIOAVAILABILITY [1, 5]: 60% | PLASMA PROTEIN BINDING (plasma protein; [4]): 93% | PLASMA PROTEIN BINDING (plasma protein; [5]): 93% | HALF-LIFE [2, 4]: 36.2 h

CC[C@H]1OC(=O)[C@H](C)[C@@H](O[C@H]2C[C@@](C)(OC)[C@@H](O)[C@H](C)O2)[C@H](C)[C@@H](O[C@@H]2O[C@H](C)C[C@H](N(C)C)[C@H]2O)[C@](C)(O)C[C@@H](C)C(=O)[C@H](C)[C@@H](O)[C@]1(C)O [Erythromycin]
ORAL BIOAVAILABILITY [1, 5]: 30-65% | PLASMA PROTEIN BINDING (plasma protein; [5]): 90% | HALF-LIFE [2, 5]: 1 to 1.5 h

COc1ccc2nc([S@@+]([O-])Cc3ncc(C)c(OC)c3C)[nH]c2c1 [Esomeprazole]
ORAL BIOAVAILABILITY [1, 6]: 90% | PLASMA PROTEIN BINDING (plasma protein; [6]): 97% | HALF-LIFE [2, 6]: 1.5 h

Clc1ccc2c(c1)C(c1ccccc1)=NCc1nncn1-2 [Estazolam (ProSom), Estazolam]
ORAL BIOAVAILABILITY [1, 5]: 93% | PLASMA PROTEIN BINDING (plasma protein; [5]): 93% | HALF-LIFE [2, 5]: 10 to 24 h

C[C@]12CC[C@@H]3c4ccc(O)cc4CC[C@H]3[C@@H]1CC[C@@H]2O [Estradiol]
ORAL BIOAVAILABILITY [1, 4]: 43% | PLASMA PROTEIN BINDING (plasma protein; [4]): >95% | HALF-LIFE [2, 4]: 36 h

C#C[C@]1(O)CC[C@H]2[C@@H]3CCc4cc(O)ccc4[C@H]3CC[C@@]21C [Ethinyl Estradiol]
ORAL BIOAVAILABILITY [1, 5]: 38-48% | PLASMA PROTEIN BINDING (plasma protein; [5]): 97-98% ^ | HALF-LIFE [2, 5]: 7 to 36 h

C=C1C[C@@H]2[C@H](CC[C@]3(C)C(=O)CC[C@@H]23)[C@@]2(C)C=CC(=O)C=C12 [Exemestane (Aromasin), Exemestane]
ORAL BIOAVAILABILITY [1, 5]: 42% | PLASMA PROTEIN BINDING (plasma protein; [5]): 90% | HALF-LIFE [2, 5]: 24 h

O=C(NCC1CCCCN1)c1cc(OCC(F)(F)F)ccc1OCC(F)(F)F (stereo not drawn) [Flecainide]
ORAL BIOAVAILABILITY [1, 3]: 70-95% | PLASMA PROTEIN BINDING (plasma protein; [3]): 40% | HALF-LIFE [2, 3]: 20 h

CNCCC(Oc1ccc(C(F)(F)F)cc1)c1ccccc1 (stereo not drawn) [Fluoxetine]
ORAL BIOAVAILABILITY [1, 7]: 60-80% | ORAL BIOAVAILABILITY [1, 3]: 60-80% | PLASMA PROTEIN BINDING (plasma protein; [7]): 94.5%^ | PLASMA PROTEIN BINDING (plasma protein; [3]): 94.5%^ | HALF-LIFE [2, 7]: 96 to 140 h | HALF-LIFE [2, 3]: 96 to 140 h

CCN(CC)CCN1C(=O)CN=C(c2ccccc2F)c2cc(Cl)ccc21 [Flurazepam (Dalmane), Flurazepam]
ORAL BIOAVAILABILITY [1, 5]: 83% | PLASMA PROTEIN BINDING (plasma protein; [5]): 97.2%^ | HALF-LIFE [2, 5]: 2.3 h

CC(C)n1c(/C=C/C(O)CC(O)CC(=O)O)c(-c2ccc(F)cc2)c2ccccc21 (stereo not drawn) [Fluvastatin]
ORAL BIOAVAILABILITY [1, 7]: 24% | PLASMA PROTEIN BINDING (plasma protein; [7]): 98% | HALF-LIFE [2, 7]: 2.5 h

Cc1ccc(S(=O)(=O)NC(=O)NN2CC3CCCC3C2)cc1 (stereo not drawn) [Gliclazide]
ORAL BIOAVAILABILITY [1, 6]: 80% | PLASMA PROTEIN BINDING (plasma protein; [6]): 85-99% ^ | HALF-LIFE [2, 6]: 8 to 12 h

CCC1=C(C)CN(C(=O)NCCc2ccc(S(=O)(=O)NC(=O)N[C@H]3CC[C@H](C)CC3)cc2)C1=O [Glimepiride]
ORAL BIOAVAILABILITY [1, 7]: 100% | PLASMA PROTEIN BINDING (plasma protein; [7]): >99% | HALF-LIFE [2, 7]: 5 to 9.2 h

O=C(CCCN1CCC(O)(c2ccc(Cl)cc2)CC1)c1ccc(F)cc1 [Haloperidol]
ORAL BIOAVAILABILITY [1, 4]: 60% | ORAL BIOAVAILABILITY [1, 3]: 60% | PLASMA PROTEIN BINDING (plasma protein; [4]): 88.4-92.5% ^ | PLASMA PROTEIN BINDING (plasma protein; [3]): 88.4-92.5% ^ | HALF-LIFE [2, 4]: 14 to 37 h | HALF-LIFE [2, 3]: 14 to 37 h

COc1ccc2c3c1O[C@H]1C(=O)CC[C@H]4[C@@H](C2)N(C)CC[C@]314 [Hydrocodone]
ORAL BIOAVAILABILITY ([1]; in vivo, po): 25% | PLASMA PROTEIN BINDING (plasma protein; [3]): 19-45% ^ | HALF-LIFE ([2]; in vivo): 7 to 9 h

COc1cc(C(C)=O)ccc1OCCCN1CCC(c2noc3cc(F)ccc23)CC1 [Iloperidone]
ORAL BIOAVAILABILITY [1, 3]: 96% | PLASMA PROTEIN BINDING (plasma protein; [3]): 95% | HALF-LIFE [2, 3]: 18 to 33 h

COc1ccc2c(c1)c(CC(=O)O)c(C)n2C(=O)c1ccc(Cl)cc1 [Indomethacin]
ORAL BIOAVAILABILITY [1, 6]: 100% | PLASMA PROTEIN BINDING (plasma protein; [6]): 99% | HALF-LIFE [2, 6]: 4.5 h

CCCCC1=NC2(CCCC2)C(=O)N1Cc1ccc(-c2ccccc2-c2nnn[nH]2)cc1 [Irbesartan]
ORAL BIOAVAILABILITY [1, 7]: 60-80% | PLASMA PROTEIN BINDING (plasma protein; [7]): 90% | HALF-LIFE [2, 7]: 11 to 15 h

COC(=O)C1=C(C)NC(C)=C(C(=O)OC(C)C)C1c1cccc2nonc12 (stereo not drawn) [Isradipine (DynaCirc), Isradipine]
ORAL BIOAVAILABILITY ([1]; cell marked CR, Table of Exemplary Drugs, CYP3A4): CR: 15-24% | ORAL BIOAVAILABILITY ([1]; cell marked IR, Table of Exemplary Drugs, CYP3A4): IR 90-95%; | PLASMA PROTEIN BINDING (plasma protein; [5]): 95% | HALF-LIFE [2, 5]: 8 h

CNC1(c2ccccc2Cl)CCCCC1=O (stereo not drawn) [Ketamine]
ORAL BIOAVAILABILITY ([1]; in vivo): IM: 90-93%, PO: 16% | PLASMA PROTEIN BINDING (plasma protein; plasma): 47% | HALF-LIFE ([2]; in vivo): 2 to 3 h

CC(=O)N1CCN(c2ccc(OCC3COC(Cn4ccnc4)(c4ccc(Cl)cc4Cl)O3)cc2)CC1 (stereo not drawn) [Ketoconazole (Nizoral), Ketoconazole]
ORAL BIOAVAILABILITY [1, 5]: 75% | PLASMA PROTEIN BINDING (plasma protein; [5]): 99% | HALF-LIFE [2, 5]: 2 to 8 h

CN1C(C(=O)Nc2ccccn2)=C(O)c2sc(Cl)cc2S1(=O)=O [Lornoxicam]
ORAL BIOAVAILABILITY ([1]; cell marked IM, Table of Exemplary Drugs, CYP2C9): IM: 87% | PLASMA PROTEIN BINDING (plasma protein; [7]): 99.7%^ | HALF-LIFE [2, 7]: 4 h

OC(c1cc(C(F)(F)F)nc2c(C(F)(F)F)cccc12)C1CCCCN1 (stereo not drawn) [Mefloquine (Lariam), Mefloquine]
ORAL BIOAVAILABILITY [1, 5]: 85% | PLASMA PROTEIN BINDING (plasma protein; [5]): 98% | HALF-LIFE [2, 5]: 3 weeks
